# Where a name gives a salt, the structure may show the parent alone. Read-outs that look alike come from different tables or passages of the source.
# How the values were obtained:
# NIH3T3 cells = experiment: Cytotoxicity on mammalian cells (CCK-8), NIH3T3; format: cell-based; settings: 3T3 cell line; 24 h
# Procedure, shortened: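 Cells seeded a day ahead to ~80% confluency, exposed to varied compound concentrations for 24 h at 37° C, 5% CO2. CCK-8 added for a further 2 h and OD 450 nm read; viability expressed as percent of untreated control.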
# M. smegmatis = experiment: MIC on mycobacteria; format: cell-based, Mycobacterium smegmatis; settings: Mycolicibacterium smegmatis, read-out: MIC on mycobacteria
# MRSA (ATCC 33592) = experiment: MIC determination and sensitization fold on MRSA; format: cell-based, methicillin-resistant Staphylococcus aureus; settings: MRSA; for Sensitization fold: rifampicin
# [1] = Cytotoxicity in H9c2 cells (CCK-8); format: cell-based; settings: rat, H9c2 cells; H9c2 cell line
# Procedure, shortened: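 H9c2 cells were grown in DMEM with 10% FBS, seeded the day before, and exposed to a range of di-amidine concentrations for 24 h at 37 °C, 5% CO2. Viability was read by CCK-8 after 3 h at 37 °C as absorbance at 450 nm.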
# E. coli strain NR698 = experiment: Sensitization of outer membrane leaky E. coli strain NR698; format: cell-based
# Description: Ery is short for erythromycin. […] E. coli NR698 was cultured with the antibiotic at various concentrations in the presence or absence of bacterial sensitizer for 24 h at 37° C. Then bacterial growth density was determined by measuring OD600. […] Then the growth density/% was calculated based on OD600.
# Bacteria culture and MICs determination: Gram-negative bacteria were cultured in Mueller Hinton II cation-adjusted broth. Gram-positive bacteria were cultured in LB broth. Mycobacterium smegmatis was cultured in Middlebrook 7H9 Broth. MICs of antibiotics itself were determined by performing two-fold serial dilutions of antibiotics. MICs of antibiotics in the presence of bacterial sensitizers were determined by performing two-fold serial dilutions of antibiotics with or without a constant concentration of bacterial sensitizers. The MICs tests were performed on 96-well plates with a final volume of 200 μl Mueller Hinton II cation-adjusted broth in each well. Each well was inoculated with 5×10^5 CFU/ml bacteria and was incubated for 24 h at 37° C. with continuous shaking of 200 rpm. The bacterial density was then determined by OD600. Bacterial growth %=OD600 of antibiotic treatment group/OD600 of antibiotic non-treatment group. MICs was determined as the concentrations that inhibit more than 90% of bacteria growth.
# E. coli [2] = experiment: Influence of exogenous LPS and Mg2+ on bacterial sensitizer; format: cell-based; settings: for effect of extra LPS in culture media on sensitization: LPS 0 to 40 μM; for effect of Mg2+ on sensitization activity: exogenous Mg2+; for Sensitization fold: rifampicin
# Description: The MICs of bacterial sensitizer and antibiotic combination in the presence of LPS (ranging from 0 to 40 μM) or Mg^2+ (ranging from 0 to 20 mM) was determined as described above (Bacteria culture and MICs determination section).
# Various experiments were then conducted to examine the molecular target(s). […] Briefly, E. coli was treated with 5 μg/ml MD-124 (about 10 μM) with varying concentrations of LPS (from 0 to 40 μM) for 20 h. Then OD600 was measured.
# Briefly, E. coli was treated with […] MD-124 (about 10 μM) with varying concentrations of Mg^2+ (from 0 to 15 mM) for 20 h. Then OD600 was measured.
# E. coli [3] = experiment: Lysozyme assay (outer membrane disruption); format: cell-based; settings: for bacterial lysis by lysozyme in the presence of sensitizer: 50 μg/ml lysozyme, 10 min; for bacterial lysis by sensitizer itself: absence of lysozyme
# Description: Lysozyme assay to evaluate the disruption of Gram-negative bacteria out membrane by bacterial sensitizers. Lysozyme assay was performed based on literature reported method. E. coli was cultured in Mueller Hinton II cation-adjusted broth for overnight, centrifuged at 3000 g for 10 min, washed with HEPES buffer (pH=7.2) and then centrifuged again to obtain bacteria pallet. The pallet was then gently resuspended in HEPES buffer with 5 mM NaCN to obtain an E. coli suspension with OD600 between 0.8˜1.0. On a 96-well plate, each well was supplied with 100 μl lysozyme solution (100 μg/ml) containing 50 or 100 μg/ml bacterial sensitizers in HEPES buffer. To each well was added 100 μl E. coli suspension. The final concentration of lysozyme was 50 μg/ml. The plate was incubated at room temperature for 10 min and the OD600 was recorded. E. coli was also incubated with bacterial sensitizers in the absence of lysozyme to test if bacterial sensitizers would directly induce bacterial lysis. E. coli that was incubated with lysozyme alone or E. coli without any treatment were also used as negative control.
smiles,measurement,setting,value
"Cc1cc(COc2ccc(C(=N)N)cc2)cc(COc2ccc(C(=N)N)cc2)c1 [MD-100, 4,4′-(((5-methyl-1,3-phenylene)bis(methylene))bis(oxy))dibenzimidamide dihydrochloride]",CC50,NIH3T3 cells,100 µM
same,MIC,M. smegmatis,12 µM
same,Sensitization fold,MRSA (ATCC 33592); compound at 6 μM,32-fold at 6 μM
same,CC50 at 24 h,[1],50 µM
same,sensitization of E. coli strain NR698,"E. coli strain NR698; erythromycin, MD-100, 24 h",failed to sensitize
same,effect of extra LPS in culture media on sensitization,E. coli [2],abolished the sensitization effect
same,effect of Mg2+ on sensitization activity,E. coli [2],decreased the sensitization ability
same,bacterial lysis by lysozyme in the presence of sensitizer,E. coli [3]; 50 μg/ml sensitizer,quick bacterial lysis
same,bacterial lysis by sensitizer itself,E. coli [3],did not lead to bacterial lysis
"N=C(N)c1ccc(COc2cc(OCc3ccc(C(=N)N)cc3)cc(C(F)(F)F)c2)cc1 [MD-124, 4,4′-(((5-(trifluoromethyl)-1,3-phenylene)bis(oxy))bis(methylene)) dibenzimidamide dihydrochloride]",CC50,NIH3T3 cells,100 µM
same,MIC,M. smegmatis; M. smegmatis,12 µM
same,Sensitization fold,MRSA (ATCC 33592); compound at 5 μM,32-fold at 5 μM
same,MIC,"MRSA (ATCC 33592); Staphylococcus aureus, 24 h, compound alone, read-out: MIC",10 µM
same,CC50 at 24 h,[1],50 µM
same,Sensitization fold,"E. coli strain NR698; E. coli NR698 towards clarithromycin, 5 μg/ml sensitizer",4 fold
same,MIC of rifampicin with 5 μg/ml MD-124,"E. coli [2]; LPS 0 μM, rifampicin only 10 μg/ml",0.02
same,effect of extra LPS in culture media on sensitization,E. coli [2],abolished the sensitization effect
same,MIC of rifampicin with 5 μg/ml MD-124,E. coli [2]; LPS 5 μM,2.5
same,MIC of rifampicin with 5 μg/ml MD-124,E. coli [2]; LPS 10 μM,2.5
same,MIC of rifampicin with 5 μg/ml MD-124,E. coli [2]; LPS 20 μM,5
same,MIC of rifampicin with 5 μg/ml MD-124,E. coli [2]; LPS 40 μM,5
same,MIC of rifampicin with 5 μg/ml MD-124,E. coli [2]; LPS […],1.25
same,MIC of rifampicin with 5 μg/ml MD-124,"E. coli [2]; Mg2+ 0 mM, rifampicin only 10 μg/ml",0.02
same,MIC of rifampicin with 5 μg/ml MD-124,E. coli [2]; Mg2+ 1.25 mM,0.02
same,MIC of rifampicin with 5 μg/ml MD-124,E. coli [2]; Mg2+ 5 mM,1.25
same,MIC of rifampicin with 5 μg/ml MD-124,E. coli [2]; Mg2+ 10 mM,2.5
same,MIC of rifampicin with 5 μg/ml MD-124,E. coli [2]; Mg2+ 15 mM,5
same,MIC of rifampicin with 5 μg/ml MD-124,E. coli [2]; Mg2+ […],0.04
same,effect of Mg2+ on sensitization activity,E. coli [2],dampened the bacterial sensitization activity
same,Sensitization fold,"E. coli [2]; 5 μg/ml MD-124, LPS 0 μM",512 fold
same,Sensitization fold,"E. coli [2]; 5 μg/ml MD-124, LPS 5 μM",4 fold
same,Sensitization fold,"E. coli [2]; 5 μg/ml MD-124, LPS 10 μM",4 fold
same,Sensitization fold,"E. coli [2]; 5 μg/ml MD-124, LPS 20 μM",2 fold
same,Sensitization fold,"E. coli [2]; 5 μg/ml MD-124, LPS 40 μM",2 fold
same,Sensitization fold,"E. coli [2]; 5 μg/ml MD-124, LPS […]",8 fold
same,Sensitization fold,"E. coli [2]; 5 μg/ml MD-124, Mg2+ 0 mM",512 fold
same,Sensitization fold,"E. coli [2]; 5 μg/ml MD-124, Mg2+ 5 mM",8 fold
same,Sensitization fold,"E. coli [2]; 5 μg/ml MD-124, Mg2+ 10 mM",4 fold
same,Sensitization fold,"E. coli [2]; 5 μg/ml MD-124, Mg2+ 15 mM",2 fold
same,Sensitization fold,"E. coli [2]; 5 μg/ml MD-124, Mg2+ […]",256 fold
same,bacterial lysis by lysozyme in the presence of sensitizer,E. coli [3]; 25 μg/ml sensitizer,quick bacterial lysis
same,bacterial lysis by sensitizer itself,E. coli [3],did not lead to bacterial lysis
